Measurements published in patent publication US11053219B2, “Substituted pyridines as TYK2 inhibitors” (FronThera U.S. Pharmaceuticals LLC, priority 2018, dated 2021).

Test system: INFα induced pSTAT5 in human PBMC
Experiment: INFα induced pSTAT5 in human PBMC
Format: cell-based
Details: Homo sapiens, PBMC, read-out: p-STAT5 IC50
Protocol: Cells were seeded in a round bottom 96-well plate at the concentration of 200,000 cells/well. A 10-point dilution series of test compound (top dose 10 uM, 1:5 dilution) was added to the well using the liquid dispenser (Tecan D300e) and incubated for 1 hour at 37 C. Then human INFα recombinant protein (R&D Systems) was added to the well at the final concentration of 5000 units/ml and incubated for 15 minutes at 37 C. Cell lysates were prepared and analyzed by Phospho STAT3 (Tyr705) cellular kit (Cisbio) or Phospho STAT5 (Tyr693) Kit (Meso Scale Discovery) following manufacturer's protocol.
For calculation of the inhibition rate, the relative pSTAT signal of each well=pSTAT signal of each well−the average pSTAT signal of baseline. The inhibition %=(the average pSTAT signal of INFα treatment wells−the relative of pSTAT signal in each compound containing well)/the average pSTAT signal of INFα treatment wells*100%
The curve was plotted as the inhibition % (y-axis) vs. compounds concentration (x-axis) and was fitted with log(inhibitor) vs. normalized response—Variable slope by GraphPad Prism7.0.

Row | SMILES | IC50 [nM]
1 | [2H]C([2H])([2H])Oc1c(Nc2cc(NC(=O)C3CC3)ncc2C(=O)C2CC2)cccc1-c1ncn(C([2H])([2H])[2H])n1 [Example 127] | < 100
2 | COc1c(Nc2cc(N[S+]([O-])C(C)(C)C)ncc2C(=O)C2CC2)cccc1-c1ncn(C)n1 (stereo not shown) [Example 128] | 1000 to 10000

Same assay, conditions: human PBMC, INFα 5000 units/ml; read-out: p-STAT5 IC50

Row | SMILES | IC50 [nM]
3 | CCC(=O)c1cnc(NC(=O)N2CCC2)cc1Nc1cccc(-c2ncn(C)n2)c1OC [Example 114] | < 100
4 | CCC(=O)c1cnc(N2CCN(C(C)C)C2=O)cc1Nc1cccc(-c2ncn(C)n2)c1OC [Example 115] | < 100
5 | CCC(=O)c1cnc(NC(=O)C2CC2)cc1Nc1cccc(-c2ncn(C)n2)c1OC [Example 116] | < 100
6 | COc1c(Nc2cc(Nc3ncccc3F)ncc2C(=O)C2CC2)cccc1-c1ncn(C)n1 [Example 119] | < 100
7 | COc1c(Nc2cc(Nc3ccc(C(C)(C)O)c(F)n3)ncc2C(=O)C2CC2)cccc1-c1ncn(C)n1 [Example 120] | < 100
8 | COc1c(Nc2cc(NC(=O)NC(C)C)ncc2C(=O)C2CC2)cccc1-c1ncn(C)n1 [Example 121] | < 100
9 | COc1c(Nc2cc(Nc3ccc(C(C)(C)O)cn3)ncc2C(=O)C2CC2)cccc1-c1ncn(C)n1 [Example 122] | < 100
10 | COc1c(Nc2cc(Nc3ccc(OC4CCOC4)cn3)ncc2C(=O)C2CC2)cccc1-c1ncn(C)n1 (stereo not shown) [Example 124] | < 100
11 | CS(=O)(=O)c1cccnc1Nc1cc(Nc2cccnn2)ncc1C(=O)C1CC1 [Example 125] | < 100
12 | CNC(=O)c1nnc(NC(=O)N2CC(C)C2)cc1Nc1cccc(-c2ncn(C)n2)c1OC [Example 129] | < 100
13 | COc1c(Nc2cc(NC(=O)C3CC3F)ncc2C(=O)C2CC2)cccc1-c1ncn(C)n1 (stereo not shown) [Example 130] | < 100
14 | COc1c(-c2ncn(C)n2)ccnc1Nc1cc(Nc2ccc(C(C)(C)O)c(F)n2)ncc1C(=O)C1CC1 [Example 131] | < 100
15 | COc1c(Nc2cc(Nc3cc(C)n(C)n3)ncc2C(=O)C2CC2)cccc1-c1ncn(C)n1 [Example 132] | < 100
16 | COc1c(Nc2cc(NC(=O)N3CC(C)(C)C3)ncc2C(=O)C2CC2)cccc1-c1ncn(C)n1 [Example 133] | < 100
17 | COc1c(Nc2cc(Nc3nccc(=O)[nH]3)ncc2C(=O)C2CC2)cccc1-c1ncn(C)n1 [Example 135] | 1000 to 10000
18 | COc1c(Nc2cc(Nc3cc(C#N)ccn3)ncc2C(=O)C2CC2)cccc1-c1ncn(C)n1 [Example 136] | < 100
19 | CS(=O)(=O)c1cccnc1Nc1cc(Nc2ccccn2)ncc1C(=O)C1CC1 [Example 137] | < 100
20 | COc1c(Nc2cc(Nc3ccn(C)n3)ncc2C(=O)C2CC2)cccc1-c1ncn(C)n1 [Example 138] | < 100
21 | COc1c(Nc2cc(Nc3ccc(C#N)cn3)ncc2C(=O)C2CC2)cccc1-c1ncn(C)n1 [Example 139] | < 100
22 | COc1c(Nc2cc(Nc3cccc(C#N)n3)ncc2C(=O)C2CC2)cccc1-c1ncn(C)n1 [Example 140] | < 100
23 | COc1c(-c2ncn(C)n2)ccnc1Nc1cc(Nc2ccccn2)ncc1C(=O)C1CC1 [Example 141] | < 100
24 | [2H]C([2H])([2H])NC(=O)c1nnc(NC(=O)N2CC(C)(F)C2)cc1Nc1cccc(-c2ncn(C)n2)c1OC [Example 142] | < 100
25 | COc1c(Nc2cc(Nc3ccnc(C#N)n3)ncc2C(=O)C2CC2)cccc1-c1ncn(C)n1 [Example 143] | < 100
26 | [2H]C([2H])([2H])NC(=O)c1nnc(NC(=O)N2CC(C#N)C2)cc1Nc1cccc(-c2ncn(C)n2)c1OC [Example 144] | < 100

Row | SMILES | IC50 [nM]
27 | [2H]C([2H])([2H])NC(=O)c1cnc(NC(=O)N2CC(C)(C)C2)cc1Nc1cccc(-c2ncn(C)n2)c1OC [Example 148] | < 100
28 | COc1c(Nc2cc(Nc3ccc(N4CCOCC4=O)cn3)ncc2C(=O)C2CC2)cccc1-c1ncn(C)n1 [Example 149] | < 100
29 | [2H]C([2H])([2H])NC(=O)c1nnc(NC(=O)N2CC3(CC3)C2)cc1Nc1cccc(-c2ncn(C)n2)c1OC [Example 150] | < 100
30 | [2H]C([2H])([2H])NC(=O)c1nnc(NC(=O)N2CC(F)(C#N)C2)cc1Nc1cccc(-c2ncn(C)n2)c1OC [Example 151] | < 100
31 | COc1c(Nc2cc(Nc3cnc(C)cn3)ncc2C(=O)C2CC2)cccc1-c1ncn(C)n1 [Example 152] | < 100
32 | COc1c(Nc2cc(Nc3ccnc(C)n3)ncc2C(=O)C2CC2)cccc1-c1ncn(C)n1 [Example 153] | < 100
33 | COc1c(Nc2cc(Nc3cc(C)ncn3)ncc2C(=O)C2CC2)cccc1-c1ncn(C)n1 [Example 154] | < 100
34 | COc1c(-c2ncn(C)n2)ccnc1Nc1cc(Nc2ccc(C)nn2)ncc1C(=O)C1CC1 [Example 155] | < 100
35 | [2H]C([2H])([2H])NC(=O)c1nnc(NC(=O)N2CC(C)(C)C2)cc1Nc1cccc(-c2ncn(C([2H])([2H])[2H])n2)c1OC [Example 156] | < 100
36 | [2H]C([2H])([2H])NC(=O)c1nnc(NC(=O)N2CC(C(F)F)C2)cc1Nc1cccc(-c2ncn(C)n2)c1OC [Example 157] | < 100
37 | [2H]C([2H])([2H])NC(=O)c1nnc(NC(=O)N2CC(OC)C2)cc1Nc1cccc(-c2ncn(C)n2)c1OC [Example 158] | < 100
38 | [2H]C([2H])([2H])NC(=O)c1nnc(N2CCN(C(C)C)C2=O)cc1Nc1nccc(-c2ncn(C([2H])([2H])[2H])n2)c1OC [Example 160, 6-(3-isopropyl-2-oxo-imidazolidin-1-yl)-4-[[3-methoxy-4-[1-(trideuteriomethyl)-1,2,4-triazol-3-yl]-2-pyridyl]amino]-N-(trideuteriomethyl)pyridazine-3-carboxamide] | < 100
39 | COc1c(Nc2cc(NC(=O)[C@@H]3C[C@@H]3F)ncc2C(=O)C2CC2)cccc1-c1ncn(C)n1 [Example 161] | < 100
40 | [2H]C([2H])([2H])NC(=O)c1nnc(NC(=O)N2CCC2C)cc1Nc1cccc(-c2ncn(C)n2)c1OC (stereo not shown) [Example 164, 4-((2-methoxy-3-(1-methyl-1H-1,2,4-triazol-3-yl)phenyl)amino)-N-(methyl-d3)-6-(2-methylazetidine-1-carboxamido)pyridazine-3-carboxamide] | < 100
41 | [2H]C([2H])([2H])NC(=O)c1nnc(NC(=O)N2CC(C)(O)C2)cc1Nc1cccc(-c2ncn(C)n2)c1OC [Example 165] | 100 to 1000
42 | [2H]C([2H])([2H])NC(=O)c1nnc(NC(=O)N2CC(CO)C2)cc1Nc1cccc(-c2ncn(C)n2)c1OC [Example 169] | < 100
43 | [2H]C([2H])([2H])CC(=O)c1cnc(NC(=O)C2CC2)cc1Nc1cccc(-c2ncn(C)n2)c1OC [Example 171] | < 100
44 | [2H]C([2H])([2H])CC(=O)c1cnc(Nc2ccc(C(C)(C)O)cn2)cc1Nc1ncccc1S(C)(=O)=O [Example 172] | < 100
45 | COc1c(Nc2cc(Nc3ncc[nH]3)ncc2C(=O)C2CC2)cccc1-c1ncn(C)n1 [Example 173] | 100 to 1000
46 | CCC(=O)c1cnc(Nc2ccc(C(C)(C)O)c(F)n2)cc1Nc1ncccc1S(C)(=O)=O [Example 174] | < 100
47 | CCC(=O)c1cnc(Nc2cccc(C#N)n2)cc1Nc1nccc(-c2ncn(C)n2)c1OC [Example 175] | < 100
48 | CCC(=O)c1cnc(Nc2cccc(C#N)n2)cc1Nc1ncccc1S(C)(=O)=O [Example 176] | < 100
49 | CCC(=O)c1cnc(Nc2cccc(C#N)n2)cc1Nc1cccc(-c2ncn(C)n2)c1OC [Example 177] | < 100
